Laboratory results from US9273033B2, “Substituted pyridone derivatives as PDE10 inhibitors” (Merck Sharp & Dohme Corp., priority 2012, dated 2016).

Target: human PDE10A2 (Homo sapiens (Human), UniProt Q9Y233)
Experiment: PDE10 fluorescence polarization (IMAP FP) inhibition assay
Assay type: biochemical
Details: human PDE10A2, FAM-labeled cAMP substrate, read-out: PDE10A Ki
How it was run: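 Cytoplasmic lysate of AD293 cells transiently expressing human PDE10A2 (diluted to ~20% substrate conversion) incubated 30 min at room temperature with 50 nM FAM-cAMP in Tris pH 7.2 buffer with MgCl2, DTT. Activity read by IMAP fluorescence polarization. 0% inhibition set with 1% DMSO, 100% with reference PDE10 inhibitor.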

Sequence of human PDE10A2 (Q9Y233 267-1055): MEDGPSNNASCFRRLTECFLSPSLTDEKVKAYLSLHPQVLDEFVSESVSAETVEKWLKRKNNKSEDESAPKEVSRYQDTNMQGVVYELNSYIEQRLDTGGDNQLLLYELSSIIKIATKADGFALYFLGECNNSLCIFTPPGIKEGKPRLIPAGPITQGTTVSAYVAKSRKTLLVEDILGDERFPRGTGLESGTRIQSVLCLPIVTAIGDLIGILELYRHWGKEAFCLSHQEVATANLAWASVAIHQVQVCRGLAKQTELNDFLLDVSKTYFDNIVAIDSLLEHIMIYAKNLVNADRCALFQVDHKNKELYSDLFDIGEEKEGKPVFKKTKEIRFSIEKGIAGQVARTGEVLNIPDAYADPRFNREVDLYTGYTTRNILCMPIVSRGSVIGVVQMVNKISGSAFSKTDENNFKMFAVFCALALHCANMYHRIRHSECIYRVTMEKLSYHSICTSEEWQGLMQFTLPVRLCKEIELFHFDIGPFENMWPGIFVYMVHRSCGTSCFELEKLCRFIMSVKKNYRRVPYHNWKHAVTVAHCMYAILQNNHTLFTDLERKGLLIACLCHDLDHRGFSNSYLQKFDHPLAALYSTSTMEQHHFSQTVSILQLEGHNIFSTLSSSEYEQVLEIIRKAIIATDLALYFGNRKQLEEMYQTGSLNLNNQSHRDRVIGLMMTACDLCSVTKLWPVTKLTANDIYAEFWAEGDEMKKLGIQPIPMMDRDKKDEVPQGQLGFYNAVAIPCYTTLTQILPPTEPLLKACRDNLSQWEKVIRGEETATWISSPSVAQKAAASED

Ki [nM] | Compound
1.01 | Cc1ccc([C@H]2C[C@@H]2COc2nc(C)ncc2-c2cc(=O)[nH]cc2C)nc1 [Example 71, 5-methyl-4-(2-methyl-4-(((1S,2S)-2-(5-methylpyridin-2-yl)cyclopropyl)methoxy)pyrimidin-5-yl)pyridin-2(1H)-one]
2.16 | Cc1ccc([C@H]2C[C@@H]2COc2nc(C)ncc2-c2cc(=O)n(C)cc2C)nc1 [Example 72, 1,5-dimethyl-4-(2-methyl-4-(((1S,2S)-2-(5-methylpyridin-2-yl)cyclopropyl)methoxy)pyrimidin-5-yl)pyridin-2(1H)-one]
1.13 | COc1ccc([C@H]2C[C@@H]2COc2nc(C)ncc2-c2cc(=O)n(C)cc2Cl)nc1 [Example 73, 5-chloro-4-(4-(((1S,2S)-2-(5-methoxypyridin-2-yl)cyclopropyl)methoxy)-2-methylpyrimidin-5-yl)-1-methylpyridin-2(1H)-one]
16.6 | Cc1ncc(-c2cc(=O)n(C)cc2C)c(OC[C@H]2C[C@@H]2c2ccccn2)n1 [Example 74, 1,5-dimethyl-4-(2-methyl-4-(((1S,2S)-2-(pyridin-2-yl)cyclopropyl)methoxy)pyrimidin-5-yl)pyridin-2(1H)-one]
8.38 | Cc1ncc(-c2cc(=O)[nH]cc2C)c(OC[C@H]2C[C@@H]2c2ccccn2)n1 [Example 75, 5-methyl-4-(2-methyl-4-(((1S,2S)-2-(pyridin-2-yl)cyclopropyl)methoxy)pyrimidin-5-yl)pyridin-2(1H)-one]
0.035 | Cc1ncc(-c2cc(=O)n(C)cc2C)c(OC[C@H]2C[C@@H]2c2ccc3ccccc3n2)n1 [Example 76, 1,5-dimethyl-4-(2-methyl-4-(((1S,2S)-2-(quinolin-2-yl)cyclopropyl)methoxy)pyrimidin-5-yl)pyridin-2(1H)-one]
0.612 | COc1ccc([C@H]2C[C@@H]2COc2nc(C)ncc2-c2cc(=O)[nH]cc2C)nc1 [Example 77, 4-(4-(((1S,2S)-2-(5-methoxypyridin-2-yl)cyclopropyl)methoxy)-2-methylpyrimidin-5-yl)-5-methylpyridin-2(1H)-one]
1.73 | Cc1ccc([C@H]2C[C@@H]2COc2nc(C)ncc2-c2ccn(C)c(=O)c2)nc1 [Example 78, 1-methyl-4-(2-methyl-4-(((1S,2S)-2-(5-methylpyridin-2-yl)cyclopropyl)methoxy)pyrimidin-5-yl)pyridin-2(1H)-one]
0.03 | Cc1ncc(-c2ccn(C)c(=O)c2)c(OC[C@H]2C[C@@H]2c2ccc3ccccc3n2)n1 [Example 79, 1-methyl-4-(2-methyl-4-(((1S,2S)-2-(quinolin-2-yl)cyclopropyl)methoxy)pyrimidin-5-yl)pyridin-2(1H)-one]
10.8 | Cc1ncc(-c2ccn(C)c(=O)c2)c(OC[C@H]2C[C@@H]2c2ccccn2)n1 [Example 80, 1-methyl-4-(2-methyl-4-(((1S,2S)-2-(pyridin-2-yl)cyclopropyl)methoxy)pyrimidin-5-yl)pyridin-2(1H)-one]
0.011 | Cc1ncc(-c2cc(=O)[nH]cc2C)c(OC[C@H]2C[C@@H]2c2ccc3ccccc3n2)n1 [Example 81, 5-methyl-4-(2-methyl-4-(((1S,2S)-2-(quinolin-2-yl)cyclopropyl)methoxy)pyrimidin-5-yl)pyridin-2(1H)-one]
0.496 | COc1ccc([C@H]2C[C@@H]2COc2nc(C)ncc2-c2cc(=O)n(C)cc2C)nc1 [Example 82, 4-(4-(((1S,2S)-2-(5-methoxypyridin-2-yl)cyclopropyl)methoxy)-2-methylpyrimidin-5-yl)-1,5-dimethylpyridin-2(1H)-one]
0.39 | COc1ccc([C@H]2C[C@@H]2COc2nc(C)ncc2-c2cc(=O)[nH]cc2Cl)nc1 [Example 83, 5-chloro-4-(4-(((1S,2S)-2-(5-methoxypyridin-2-yl)cyclopropyl)methoxy)-2-methylpyrimidin-5-yl)pyridin-2(1H)-one]
88.4 | Cc1ncc(-c2ccn(C)c(=O)c2)c(OC[C@@H]2C[C@H]2c2ccc(F)cn2)n1 [Example 84, 4-(4-(((1R,2R)-2-(5-fluoropyridin-2-yl)cyclopropyl)methoxy)-2-methylpyrimidin-5-yl)-1-methylpyridin-2(1H)-one]
0.439 | COCCn1ccc(-c2cnc(C)nc2OC[C@H]2C[C@@H]2c2ccc(C)cn2)cc1=O [Example 85, 1-(2-methoxyethyl)-4-(2-methyl-4-(((1S,2S)-2-(5-methylpyridin-2-yl)cyclopropyl)methoxy)pyrimidin-5-yl)pyridin-2(1H)-one]
1.56 | Cc1ccc([C@H]2C[C@@H]2COc2nc(C)ncc2-c2cc(C)n(C)c(=O)c2)nc1 [Example 86, 1,6-dimethyl-4-(2-methyl-4-(((1S,2S)-2-(5-methylpyridin-2-yl)cyclopropyl)methoxy)pyrimidin-5-yl)pyridin-2(1H)-one]
0.785 | COc1ccc([C@H]2C[C@@H]2COc2nc(C)ncc2-c2cc(C)n(C)c(=O)c2)nc1 [Example 87, 4-(4-(((1S,2S)-2-(5-methoxypyridin-2-yl)cyclopropyl)mcthoxy)-2-methylpyrimidin-5-yl)-1,6-dimethylpyridin-2(1H)-one]

Ki [nM] | Compound
27.5 | Cc1ncc(-c2ccn(C)c(=O)c2)c(OC[C@H]2C[C@@H]2c2ccc(F)cn2)n1 [Example 88, 4-(4-(((1S,2S)-2-(5-fluoropyridin-2-yl)cyclopropyl)methoxy)-2-methylpyrimidin-5-yl)-1-methylpyridin-2(1H)-one]
7.39 | COc1ccc([C@H]2C[C@@H]2COc2nc(C)ncc2-c2cc(=O)n(C)cc2C#N)nc1 [Example 89, 4-(4-(((1S,2S)-2-(5-methoxypyridin-2-yl)cyclopropyl)methoxy)-2-methylpyrimidin-5-yl)-1-methyl-6-oxo-1,6-dihydropyridine-3-carbonitrile]
9.22 | Cc1ncc(-c2ccn(C)c(=O)c2)c(OC[C@H]2C[C@@H]2c2ccc(OC(F)F)cn2)n1 [Example 90, 4-(4-(((1S,2S)-2-(5-(difluoromethoxy)pyridin-2-yl)cyclopropyl)methoxy)-2-methylpyrimidin-5-yl)-1-methylpyridin-2(1H)-one]
1.2 | Cc1ccc([C@H]2C[C@@H]2COc2nc(C)ncc2-c2ccn(C(C)C)c(=O)c2)nc1 [Example 91, 1-isopropyl-4-(2-methyl-4-(((1S,2S)-2-(5-methylpyridin-2-yl)cyclopropyl)methoxy)pyrimidin-5-yl)pyridin-2(1H)-one]
12.5 | COc1ccc([C@H]2C[C@@H]2COc2nc(C)ncc2-c2cc(=O)n(C)cc2SC)nc1 [Example 92, 4-(4-(((1S,2S)-2-(5-methoxypyridin-2-yl)cyclopropyl)methoxy)-2-methylpyrimidin-5-yl)-1-methyl-5-(methylthio)pyridin-2(1H)-one]
3.02 | COc1ccc([C@H]2C[C@@H]2COc2nc(C)ncc2-c2cc(=O)n(C)cc2C(F)(F)F)nc1 [Example 93, 4-(4-(((1S,2S)-2-(5-methoxypyridin-2-yl)cyclopropyl)mcthoxy)-2-methylpyrimidin-5-yl)-1-methyl-5-(trifluoromethyl)pyridin-2(1H)-one]
100 | Cc1ncc(-c2ccn(C)c(=O)c2)c(OC[C@@H]2C[C@H]2c2ccc(OC(F)F)cn2)n1 [Example 94, 4-(4-(((1R,2R)-2-(5-(difluoromethoxy)pyridin-2-yl)cyclopropyl)methoxy)-2-methylpyrimidin-5-yl)-1-methylpyridin-2(1H)-one]
0.75 | CCn1ccc(-c2cnc(C)nc2OC[C@H]2C[C@@H]2c2ccc(OC)cn2)cc1=O [Example 95, 1-ethyl-4-(4-(((1S,2S)-2-(5-methoxypyridin-2-yl)cyclopropyl)methoxy)-2-methylpyrimidin-5-yl)pyridin-2(1H)-one]
0.021 | CCn1ccc(-c2cnc(C)nc2OC[C@H]2C[C@@H]2c2ccc3ccccc3n2)cc1=O [Example 96, 1-ethyl-4-(2-methyl-4-(((lS,2S)-2-(quinolin-2-yl)cyclopropyl)methoxy)pyrimidin-5-yl)pyridin-2(1H)-one]
0.041 | Cc1ncc(-c2cc(C)n(C)c(=O)c2)c(OC[C@H]2C[C@@H]2c2ccc3ccccc3n2)n1 [Example 97, 1,6-dimethyl-4-(2-methyl-4-(((1S,2S)-2-(quinolin-2-yl)cyclopropyl)methoxy)pyrimidin-5-yl)pyridin-2(1H)-one]
67.5 | COc1ccc([C@H]2C[C@@H]2COc2nc(C)ncc2-c2cc(=O)n(C)cc2S(C)(=O)=O)nc1 [Example 98, 4-(4-(((1S,2S)-2-(5-methoxypyridin-2-yl)cyclopropyl)methoxy)-2-methylpyrimidin-5-yl)-1-methyl-5-(methylsulfonyl)pyridin-2(1H)-one]
1.11 | Cc1ccc([C@H]2C[C@@H]2COc2nc(C)ncc2-c2cc(=O)n(C)cc2Cl)nc1 [Example 99, 5-chloro-1-methyl-4-(2-methyl-4-(((1S,2S)-2-(5-methylpyridin-2-yl)cyclopropyl)methoxy)pyrimidin-5-yl)pyridin-2(1H)-one]
0.012 | COCCn1ccc(-c2cnc(C)nc2OC[C@H]2C[C@@H]2c2ccc3ccccc3n2)cc1=O [Example 100, 1-(2-methoxyethyl)-4-(2-methyl-4-(((1S,2S)-2-(quinolin-2-yl)cyclopropyl)methoxy)pyrimidin-5-yl)pyridin-2(1H)-one]
0.4 | COCCn1ccc(-c2cnc(C)nc2OC[C@H]2C[C@@H]2c2ccc(C)cn2)cc1=O [Example 101, 1-(2-methoxyethyl)-4-(2-mcthyl-4-(((1S,2S)-2-(5-methylpyridin-2-yl)cyclopropyl)methoxy)pyrimidin-5-yl)pyridin-2(lH)-one]
0.04 | Cc1ncc(-c2cc(=O)n(C)cc2Cl)c(OC[C@H]2C[C@@H]2c2ccc3ccccc3n2)n1 [Example 102, 5-chloro-1-methyl-4-(2-methyl-4-(((1S,2S)-2-(quinolin-2-yl)cyclopropyl)methoxy)pyrimidin-5-yr)pyridin-2(1H)-one]
100 | Cc1ncc(-c2ccn(C)c(=O)c2)c(OC[C@@H]2C[C@H]2c2ccc(Cl)cn2)n1 [Example 103, 4-(4-(((1R,2R)-2-(5-chloropyridin-2-yl)cyclopropyl)methoxy)-2-methylpyrimidin-5-yl)-1-methylpyridin-2(1H)-one]
